Experiments:
NT2/D1 cells [1] = test: Apoptosis by PARP cleavage and sub G1 DNA content; format: cell-based; details: cisplatin 0.5 μM; NT2/D1 versus NT2/D1-R1
Procedure: (§1) Cells were cultured in DMEM media (Gibco) with 10% FBS. Decitabine was added fresh each day. Lentiviral control cells and the stable shRNA DNMT3B knockdown cell line (NT2/D1-R1-sh84) were described previously (Beyrouthy et al. 2009. Cancer Res. 69:9360-9366). DNMT3B knockdown was greater than 90% as confirmed by western blot analysis. Cell proliferation and survival were assessed with the CELL-TITRE GLO assay (Promega). Cell cycle analysis with propidium iodine has been previously described (Kerley-Hamilton et al. 2005. Oncogene 24:6090-6100).
(§2) SYBR green-based real-time PCR (Applied Biosystems) was employed using the ddCT method normalized to GAPDH. For western blot analysis cells were lysed in radioimmune precipitation buffer and separated by SDS-PAGE. Antibodies to actin (sc01615, Santa Cruz), 139-H2AX (Cell Signaling), PARP (c-2-10, Biomol International) and p53 (D0-1, Santa Cruz) were used.

NT2/D1-R1 cells = test: Apoptosis by PARP cleavage and sub G1 DNA content; format: cell-based; details: cisplatin; cisplatin-resistant NT2/D1-R1
Procedure: (§3) Importantly, decitabine-mediated H2AX activation also occurs in the presence of the caspase 3 inhibitor (Z-VAD-FMK) at concentrations that inhibit PARP cleavage.
as §1, §2

NT2/D1 cells [2] = test: Gene expression microarray with PAM cluster analysis (Tables 1-5); format: cell-based, human
Procedure: The cisplatin treatment protocol has been previously described (Kerley-Hamilton et al. 2005. Oncogene 24:6090-6100).
The same effect was not observed in cells treated with cisplatin; gene expression levels were not dramatically altered in cisplatin-treated cells. […] The genes clustered into distinct patterns.
Next, partitioning around medoids (PAM) analysis was performed on the 1130 genes whose expression levels changed by 1.5-fold or greater as compared to control treatment. […] Changes in gene expression levels of representative genes for each cluster were confirmed in independent samples by real-time PCR (FIG. 10).
(§4) Expression analysis was performed on the […] HumanHT-12 v3 or […] HumanHT-12 v4 bead chip arrays ([…]) and scanned on the BeadArray Reader ([…]) according to manufacturer's instructions.

NT2 cells = test: Gene set enrichment analysis (GSEA) of microarray data (Table 6); format: cell-based, human; details: Gene Sets Enriched in NT2 Cells with Cisplatin Treatment (0.5 μM for 3 days)
Procedure: Gene set enrichment analysis (GSEA) was performed.
as §4

NT2/D1 cells [3] = test: Cell-Titre Glo viable cell growth and survival, 3 day decitabine; format: cell-based; details: NT2/D1
Procedure: Indicated doses of decitabine were added fresh each day for three days to exponentially growing cultures. Viable cell growth and survival were measured. Data are normalized to no drug treatment. EC cells are NT2/D1, NT2D1/R1, 833K, 833KCP, and Tera-1. Data are the average of 3 experiments in biological duplicate except for MCF-7 cells, which were assayed twice. Error bars are standard deviation (S.D.).
Cell growth and viability of five EC cell lines (NT2/D1, NT2D1/R1, 833K, 833KCP, and Tera-1) were determined, including two cell lines that are cisplatin-resistant (NT2/D1-R1 and 833KCP). Three control somatic tumor cell lines were also tested (HCT116, MCF7 and U2OS). […] Viable cell growth and survival were measured using Cell-Titre Glo (Promega) assays. […] These higher values are similar to the values shown in FIG. 1 for somatic tumor cell lines (MCF7, U2OS and HCT116).
NT2/D1, NT2D1-R1, 833K, 833K-CP, Tera-1, U20S, and HCT116 cells were cultured in DMEM with 10% FBS supplemented with glutamine and antibiotics except for MCF7 cells that were cultured in F12-DMEM. The derivation of the NT2/D1-resistant NT2/D1-R1 cell line has been previously described (Curtin et al. 2001. Oncogene 20:2559-2569; Kerley-Hamilton et al. 2007. Biochim. Biophys. Acta 1769:209-219). Cells were treated with the indicated dosages of 5-azadeoxycytidine (5-aza-CdR) for 3 days. This drug was replenished each day. Cisplatin (Bristol Laboratories) treatments were performed at the concentrations and time points indicated. To assess cell proliferation and survival, CELL-TITRE GLO (Promega) assays were performed.
as §1

[4] = system: phosphorylated H2AX in NT2/D1-R1 cells; test: DNA damage by induction of phosphorylated H2AX (western blot); format: cell-based; details: cisplatin
Text: as §3, §2

N.N.[Cl][Pt][Cl] [cisplatin]
apoptotic responses (PARP cleavage, sub G1 DNA content) (NT2/D1 cells [1]): induces these responses only in cisplatin-sensitive NT2/D1 cells | PARP cleavage (NT2/D1-R1 cells): does not induce PARP cleavage | Cluster 2: unique genes whose expression levels were increased only by cisplatin treatment (NT2/D1 cells [2]; 0.5 μM cisplatin 6 hours, 24 hour recovery): 81 genes | Cluster 3: genes upregulated by both decitabine treatment and cisplatin treatment (NT2/D1 cells [2]; 1.5-fold or greater): 71 genes | Cluster 5: genes down-regulated by both decitabine treatment and cisplatin treatment (NT2/D1 cells [2]; 1.5-fold or greater): 88 genes | NES, AMIT_EGF_RESPONSE_120_MCF10A (NT2 cells): −2.2779 | NES, AMIT_EGF_RESPONSE_480_HELA (NT2 cells): −2.5999 | NES, AMUNDSON_DNA_DAMAGE_RESPONSE_TP53 (NT2 cells): −2.2828 | NES, CONCANNON_APOPTOSIS_BY_EPOXOMICIN_UP (NT2 cells): −2.2899 | NES, DACOSTA_UV_RESPONSE_VIA_ERCC3_UP (NT2 cells): −2.3411 | NES, INGA_TP53_TARGETS (NT2 cells): −2.3095 | NES, KANNAN_TP53_TARGETS_UP (NT2 cells): −2.5961 | NES, KERLEY_RESPONSE_TO_CISPLATIN_UP (NT2 cells): −3.0393 | NES, SCHAVOLT_TARGETS_OF_TP53_AND_TP63 (NT2 cells): −2.4114 | NES, WEIGEL_OXIDATIVE_STRESS_RESPONSE (NT2 cells): −2.3010 | effects on cell viability and proliferation (NT2/D1 cells [3]; after 1 day of cisplatin treatment): minimal | effects on cell viability and proliferation (NT2/D1 cells [3]; by day two of cisplatin treatment): robust anti-proliferation and cell death effects | induction of phospho-H2AX [4]: can induce phospho-H2AX

— US9476099B2 (TRUSTEES OF DARTMOUTH COLLEGE, priority 2012, dated 2016)
